# Reference: US7655253B2, “Navel orangeworm pheromone composition” (Bedoukian Research, Inc., priority 2004, dated 2010)
# Columns and labels:
# meal moth = assay: Field trap tests, UC Davis, meal moth captures; assay type: in vivo, Pyralis farinalis; conditions: for catches of meal moth in traps baited with virgin female navel orangeworm plus added compound: synthetic sample 0.5 mg per device added
# Procedure: (§1) Experimental. Tests were conducted in almond and walnut plot fields in the UC Davis campus. Pheromone samples (0.5 mg) were formulated in rubber septa or in 12 mm diameter, 3 mm thick discs (made of ES fiber, Chisso Co. Ltd, Tokyo, Japan) and loaded into Pherocon 1C traps (Trece Inc., Salinas, Calif.). Three or five 1 to 3-day old virgin females were placed in fiberglass screen cages (Curtis, C. E. and Clark, J. D., J Econ Entomol 77:1057-1061 (1984) Curtis et al., J Econ Entomol 78:1425-1430 (1985)). Baited and control traps were placed at ca. 1.8 m height in randomized blocks with the intertrap distance of ca. 10 m. Capture data were transformed to log (x+0.5) and analyzed by ANOVA. […] Means of captures are untransformed, and error bars show one standard error (SE).
# [1] = system: male moth antennae (navel orangeworm); assay: GC-EAD using male navel orangeworm antennae as sensing element; design: species or system Amyelois transitella; conditions: for EAD activity of natural constituent: peaks in female pheromone gland extract or its fractions; for EAD activity of synthetic or authentic compound: synthetic standard
# Procedure: General. Gas chromatography-mass spectrometry (GC-MS), described in Examples 1-6, was obtained with a 5973 Network Mass Selective Detector linked to a 6890 Network GC System (Agilent Technologies, Palo Alto, Calif.) operated either in the electron impact (EI) or chemical ionization (CI) mode. Chromatographic resolution was done on an HP-5MS column (30 m×0.25 mm; 0.25 μm; Agilent) that was operated at 70° C. for 1 min, increased to 250° C. at a rate of 10° C./min and held at this temperature for 10 min. Vapor phase infrared spectroscopy was carried out on a Win GC/IR Pro (Varian Inc., formerly Digilab, Randolph, Mass.) with a GC/IR interface and a Scimitar FTS 2000 linked to a 6890 Network GC System (Agilent). Separation was done on a HP-5 column (30 m×0.32 mm; 0.25 μm; Agilent) operated at 100° C. for 1 min, increased to 250° C. at a rate of 20° C./min and held at this temperature for 5 min; the transfer line and light pipe were operated at 250° C. Gas chromatography with electroantennographic detection (GC-EAD) was done with two different systems: HP 5890 and HP 6890 (Agilent) both having Syntech's GC-EAD transfer lines and temperature control units (Hilversum, The Netherlands). In both systems, the effluent from the capillary column was split into EAD and flame ionization detector (FID) in 3:1 ratios. Male antennae were placed in EAG probes (Syntech) and held in place with Spectra 360 electrode gel (Parker Laboratories, Orange, N.J.). These probes were connected to AM-01 amplifiers (Syntech). The analog signals were fed into A/D 35900E interfaces (Agilent) and acquired simultaneously with FID signal on an Agilent Chemstation. Chromatographic separations were done either with HP-5MS column operated as in GC-MS or with HP-INNOWAX column (30 m×0.32 mm; 0.25 μm; Agilent) operated at 70° C. for 1 min, increased to 250° C. at a rate of 10° C./min and held at this temperature for 5 min.
# Gas chromatography coupled with an electroantennographic detector (GC-EAD) using male moth antennae as the sensing element was used to determine the active constituents in these SSR-active fractions (3% and hexane). […] The peaks were numbered in the order of their retention times (tR) in a non-polar column (1: tR, 17.30 min; 2: 18.44 min; 3: 18.96 min; 4: 19.08 min; 5: 20.9 min; 6: 23.8 min). The retention times of these EAD-active peaks in a polar column (HP-INNOWAX) were: 16.59, 17.37, 18.32, and 18.72 min (3% fraction) and 18.52 and 20.22 min (hexane fraction).
# Pheromone glands were individually dissected out of >2,000 virgin female NOW, and the glands were extracted in −250 microliters of pentane in composite batches of −250-300 glands per extract. The extracts were screened by GC-EAD analysis to locate the compounds which elicited responses from male antennae (i.e., potential pheromone compounds). The extracts were then concentrated to ˜10-20 microliters, and aliquots were analyzed on several GC columns with different polarity, by coupled GC-mass spectrometry, and by coupled GC-Fourier transform infrared spectrometry. A parallel set of studies was conducted with composite pheromone gland extracts prepared from Pyralis females. A subset of the extracts were also combined and fractionated by liquid chromatography, to provide samples for wind tunnel tests.
# [2] = system: antennae of male meal moth; assay: GC-EAD using male meal moth antennae; design: species or system Pyralis farinalis
# Procedure: General. Gas chromatography-mass spectrometry (GC-MS), described in Examples 1-6, was obtained with a 5973 Network Mass Selective Detector linked to a 6890 Network GC System (Agilent Technologies, Palo Alto, Calif.) operated either in the electron impact (EI) or chemical ionization (CI) mode. Chromatographic resolution was done on an HP-5MS column (30 m×0.25 mm; 0.25 μm; Agilent) that was operated at 70° C. for 1 min, increased to 250° C. at a rate of 10° C./min and held at this temperature for 10 min. Vapor phase infrared spectroscopy was carried out on a Win GC/IR Pro (Varian Inc., formerly Digilab, Randolph, Mass.) with a GC/IR interface and a Scimitar FTS 2000 linked to a 6890 Network GC System (Agilent). Separation was done on a HP-5 column (30 m×0.32 mm; 0.25 μm; Agilent) operated at 100° C. for 1 min, increased to 250° C. at a rate of 20° C./min and held at this temperature for 5 min; the transfer line and light pipe were operated at 250° C. […]
# Pheromone glands were individually dissected out of >2,000 virgin female NOW, and the glands were extracted in −250 microliters of pentane in composite batches of −250-300 glands per extract. […] The extracts were then concentrated to ˜10-20 microliters, and aliquots were analyzed on several GC columns with different polarity, by coupled GC-mass spectrometry, and by coupled GC-Fourier transform infrared spectrometry. […]
# NOW males = assay: Wind tunnel bioassays of male NOW flight responses; assay type: in vivo, Amyelois transitella
# Procedure: Flight responses of male NOW to different blends and doses of synthesized pheromone components were tested in the ARS wind tunnel. Males were 2-3 days old and were used during the last two hours of shotophase (dark cycle). The wind tunnel room was maintained at 23-26° C. with >35% relative humidity. NOW males were placed in individual aluminum-screen cages during their 1st or 2nd photophase and then held in an incubator until one hour prior to testing, when they were transferred from their dark incubator to the wind tunnel. […] After conditioning to ambient conditions in the wind tunnel for one hour, males were assayed individually to test compounds formulated on 1cm dia. filter paper disks. Information recorded included the number of males per trial that reached the pheromone source, the time to reach the pheromone source, and observations of the flight behavior (e.g., relatively straight flight; looping flight; veering out of the pheromone plume, etc.)
# Subsequent wind tunnel tests were evaluated on quantitative as well as qualitative responses of NOW males to test formulations. All treatments were applied to 1 cm filter paper disks in at least 25 ul of hexane, to fully “wet” the paper surface, and at least 5 males were tested individually to each pheromone blend.
# navel orangeworm = assay: Field trap tests, UC Davis, navel orangeworm captures; assay type: in vivo, Amyelois transitella; conditions: 0.5 mg lure, 3-wk period
# Procedure: as §1
# [3] = system: olfactory receptor neurons (ORN) in sensilla trichodea of male moth antennae; assay: Single sensillum recordings (SSR) from sensilla trichodea; design: species or system Amyelois transitella
# Source text: Single sensillum recordings (SSR). Male moths were immobilized with dental wax on the recording stage of a single sensillum recording unit (Syntech, INR-02), the tip of the sensilla were cut (Kaissling, K. E. Single unit and electroantennogram recordings in insect olfactory organs, In: Spielman A. I., Brand J. G. (ed) Experimental Cell Biology of Taste and Olfaction: Current Techniques and Protocols, CRC Press, Boca Raton, pp.361-386 (1995)) and placed under a stereomicroscope (SZX12,Olympus, Tokyo, Japan). The indifferent (ground) electrode was a thin tungsten electrode inserted into the head. The recording glass electrode was slipped over the cut tip of the sensilla with a Piezo Manipulator (PM-10, World Precision Instruments, Sarasota, Fla.) while the signal was monitored with a Tektronix oscilloscope (TDS-2014). The pre-amplified signal was acquired with an acquisition system (IDAC-USB, Syntech) and SSR software (Autospike 2000, Syntech). The antennal preparation was continuously flushed with clean air at 0.5 m/s. Each stimulus was applied to a filter paper, dried at least 10 min, and placed within a glass cartridge (7 mm i.d.; 5 cm long). The cartridge opening was placed 1 cm in front of the antennae. The stimulus air was delivered by a stimulus controller (CD-02/E, Syntech).
# [4] = system: major pheromone-binding protein (AtraPBP); assay: Binding assays with recombinant olfactory proteins; design: species or system navel orangeworm, A. transitella; conditions: preliminary screening of ligands
# Source text: Synthetic pheromone compositions can be conveniently tested in the assays described below. For example, the synthetic pheromone compositions of the present invention can be tested.to determine affinity for a pheromone-binding protein (AtraPBP) present in the navel orangeworm. Alternatively, the compositions can be tested for the ability to stimulate the olfactory receptor neurons (ORNs) in the insect's sensilla trichodea producing a response that indicates the presence or absence of a pheromone. In a typical embodiment, the compositions stimulate an electroantennogram response from an insect pest antenna, as described below.
# Results. A comprehensive approach was taken in studying chemical communication in the navel orangeworm, A. transitella. Pheromone- and odorant-binding proteins were isolated, cloned, and expressed.
smiles,measurement,setting,value
"CC/C=C\C=C/CCCCCCCCCCOC(C)=O (single isomer, unassigned) [Compound 4, (Z,Z)-11,13-hexadecadien-1-yl acetate]",catches of meal moth in traps baited with virgin female navel orangeworm plus added compound,meal moth,completely shut off
same,EAD activity of natural constituent,[1],EAD-active
"CC/C=C\C=C/CCCCCCCCCCOC(C)=O [(Z,Z)-11,13-hexadecadien-1-yl acetate]",effect of removing the compound from the full mixture on meal moth captures,meal moth; partial mixtures,increased dramatically captures of male meal moth
same,catches of meal moth in traps baited with virgin female navel orangeworm plus added compound,meal moth,complete lack of captures
same,EAD activity of synthetic or authentic compound,[1],same electrophysiological activity as the natural product
"CC/C=C/C=C\CCCCCCCCCC=O [(Z,E)-1, Z,E-11,13-hexadecadienal]",EAD activity of natural constituent,[1],small EAD-active peaks
"CC/C=C\C/C=C\C/C=C\C/C=C\C/C=C\CCCCCCC [(Z,Z,Z,Z,Z)-3,6,9,12,15-tricosapentaene]",share of NOW antennal preparations with detectable response,[1]; NOW gland extract screened by GC-EAD,about half
same,EAD activity of natural constituent,[1],much weaker response
same,EAD response of male meal moth antennae,[2],consistently elicited responses from the male antennae
"CC/C=C\C/C=C\C/C=C\C/C=C\C/C=C\CCCCCCCCC (single isomer, unassigned) [Compound 6, (Z,Z,Z,Z,Z)-3,6,9,12,15-pentacosapentaene]",EAD activity of natural constituent,[1],EAD-active
"CCCCCCCCCCCCCCCC(=O)OCC (single isomer, unassigned) [Compound 2, ethyl palmitate]",EAD activity of natural constituent,[1],EAD-active
"CC/C=C\C=C/CCCCCCCCCC=O (single isomer, unassigned) [Compound 1, (Z,Z)-11,13-hexadecadienal]",male NOW response in wind tunnel,NOW males; synthesized standards and crude extract,no test males responded
same,captures of male navel orangeworm in baited traps,navel orangeworm,captured no moths
same,SSR response of olfactory receptor neurons,[3],large spike amplitude cells (FIG. 1A) were activated
same,affinity to AtraPBP,[4],apparent high affinity
same,EAD activity of natural constituent,[1],EAD-active
same,EAD activity of natural constituent,"[1]; listed as (Z,Z)-1",strongest EAD-active peak
"CC/C=C\C=C/CCCCCCCCCCO [Z11,Z13-16:OH, Z,Z-11,13-hexadecadien-1-ol]","effect of adding the compound to the blend of Z11,Z13-16:Ald with tricosapentaene",NOW males; wind tunnel,further enhanced attraction
"CC/C=C\C/C=C\C/C=C\C/C=C\C/C=C\CCCCCCC (single isomer, unassigned) [Compound 5, (Z,Z,Z,Z,Z)-3,6,9,12,15-tricosapentaene]",EAD activity of natural constituent,[1],EAD-active
"CC/C=C\C=C\CCCCCCCCCC=O [(E,Z)-1, E,Z-11,13-hexadecadienal]",EAD activity of natural constituent,[1],small EAD-active peaks
CCCCCCCCCCCCCCCC(=O)OCC [ethyl palmitate],EAD activity of synthetic or authentic compound,[1],EAD activity
"CC/C=C/C=C/CCCCCCCCCC=O [(E,E)-1]",SSR response of olfactory receptor neurons,[3],"activated mainly a small spike ORN, with small activation of a large spike cell"
"CC/C=C\C=C/CCCCCCCCCC(=O)OCC (single isomer, unassigned) [Compound 3, ethyl (Z,Z)-11,13-hexadecadienoate]",EAD activity of natural constituent,[1],EAD-active
same,EAD activity of synthetic or authentic compound,[1],EAD active
